Test results taken from patent US11186534B2, “Derivatives of sulindac can protect normal cells against oxidative damage” (University of South Alabama, priority 2017, dated 2021).

Legend:
[1] = system: Retinal pigmented epithelium cells (ARPE-19); assay: Cell viability assay: protection of RPE cells against oxidative damage from TBHP; assay type: cell-based
Method: Cultured cells and reagents: Retinal pigmented epithelium cells (ARPE-19) were obtained from American Type Culture Collection (ATCC, Manassas, Va.) and cultured at 37° C. in 5% CO2. All chemicals were purchased from Sigma unless specified.
Cell viability assay: Cells were cultured and assayed for cell viability essentially as described previously (14). ARPE-19 cells were plated at 10,000 cells per well in a 96-well plate. The cells were grown for 18-20 hours, the medium discarded in aseptic conditions and replaced with fresh culture medium containing the indicated drug concentration. The plates were incubated for 24 hours at 37° C. in a 5% CO2 incubator in the presence of sulindac or Compound 9. To examine the treatment effects on oxidative damage to RPE cells, cells were washed and incubated in media without serum with various concentrations of tert-butyl hydroperoxide (TBHP) for an additional 24h. The culture medium was then discarded and the cells were thoroughly rinsed in PBS. Cell viability was determined by using the Cell Titer 96 Aqueous One Cell Proliferation Assay (Promega) according to the manufacturer's instructions. The assay utilizes a tetrazolium compound that is converted into a water-soluble formazan by the action of cellular NADH oxidase activity in metabolically active cells. The formazan was quantified by measuring the absorbance at 490 nm using a colorimetric microtiter plate reader (SpectraMax Plus; Molecular Devices).
In the present studies, a series of compounds were identified as having the ability to protect RPE cells against oxidative damage using tert-butyl hydroperoxide (TBHP), an organic peroxide, as an oxidizing agent (10).

ovine COX-1 = biological target: T1, ovine COX-1 (Ovis aries, UniProt P05979); assay: COX Fluorescent Inhibitor Screening assay, COX-1; assay type: biochemical; conditions: FIG. 4A
T1 construct: purchased Cayman Chemical 700100
T1 sequence (P05979 25-600): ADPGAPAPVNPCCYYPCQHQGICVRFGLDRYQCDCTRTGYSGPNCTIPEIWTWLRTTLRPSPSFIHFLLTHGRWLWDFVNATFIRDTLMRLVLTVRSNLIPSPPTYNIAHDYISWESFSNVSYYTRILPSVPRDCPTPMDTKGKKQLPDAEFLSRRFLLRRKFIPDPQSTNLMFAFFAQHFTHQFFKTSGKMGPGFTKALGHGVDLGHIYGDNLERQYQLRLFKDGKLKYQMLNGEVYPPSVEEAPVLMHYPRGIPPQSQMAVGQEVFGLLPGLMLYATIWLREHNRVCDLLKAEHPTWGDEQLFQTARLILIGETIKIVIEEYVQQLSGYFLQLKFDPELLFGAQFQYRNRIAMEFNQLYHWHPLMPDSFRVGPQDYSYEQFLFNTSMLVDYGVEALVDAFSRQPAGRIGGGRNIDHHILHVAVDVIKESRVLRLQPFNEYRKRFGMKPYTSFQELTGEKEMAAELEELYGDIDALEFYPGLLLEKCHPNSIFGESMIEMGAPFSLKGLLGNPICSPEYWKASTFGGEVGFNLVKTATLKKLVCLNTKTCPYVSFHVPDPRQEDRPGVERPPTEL
Method: Compounds were assayed for cyclooxygenase (COX) inhibition using the COX Fluorescent Inhibitor Screening Kit from Cayman Chemical (Item #: 700100). Briefly, COX enzyme (ovine COX-1 or human recombinant COX-2) diluted in 1× reaction buffer is incubated with the compound or DMSO control for 20 min at 25° C. in a half-area 96-well black microplate. Background wells are also included that contained no enzyme. Added to each well were heme B, to ensure enzyme activity, and 10-acetyl-3,7-dihydroxyphenoxazine (ADHP) assay reagent. After the 20 min incubation, arachidonic acid (AA) substrate was added to all wells. As shown by the schematic diagram below, active COX enzyme converts AA to hydroperoxy endoperoxide (PGG2). Catalyzed by the secondary peroxidase activity of COX, ADHP can react with PGG2 to form a highly fluorescent compound, resorufin. Fluorescence was measured with a […] excitation wavelength and a 585-595 nm emission wavelength. Decreased fluorescence relative to the DMSO control indicates COX inhibition. See, also, Piazza G A, Keeton A B, Tinsley H N, Gary B D, Whitt J D, Mathew B, Thaiparambil J, Coward L, Gorman, G, Li Y, Sani B, Hobrath J V, Maxuitenko Y Y and Reynolds R C. […] Cancer Prevention Research 2009; 2: 572-580.

[2] = system: PDE isozymes 1-11 (except PDE6); assay: IMAP fluorescence polarization PDE assay, panel of PDE isozymes; assay type: biochemical; conditions: 25 μM; FIG. 5C
Method: PDE activity was measured using the IMAP fluorescence polarization PDE assay (Molecular Devices) in which the binding of hydrolyzed fluorescent cyclic nucleotide substrate to the IMAP reagent increases fluorescence polarization. Each well of a 96-well nonbinding plate contained 0.25 mg/mL of recombinant enzyme preparations. Enzymes were incubated with COMPOUND 9 or vehicle (DMSO) for 30 min at 30° C. before the addition of a substrate mixture containing 25 nmol/L of fluorescein-cGMP. The DMSO final concentration for each experiment was 2%. After 90 min of incubation at 30° C., the reaction was terminated by the addition of binding reagent. The maximum Fluorescence polarization was measured using a Synergy4 (BioTek) plate reader.

`COc1cc2c(cc1OC)/C(=C\c1cc(OC)c(OC)c(OC)c1)C(C)=C2CC(=O)O` [Compound 9, (Z)-2-(5,6-dimethoxy-2-methyl-1-(3,4,5-trimethoxybenzylidene)-1H-inden-3-yl)acetic acid] was tested, and the “Cyto-protective activity*” value ([1]; RPE cells, TBHP as oxidizing agent, relative to Sulindac) was “active”, the “Protective effect on RPE cells in combination with PKG inhibitor Rp-Br-8-PET-cGMPS” value ([1]; Rp-Br-8-PET-cGMPS 500 μM, 24 h, FIG. 6C) was “reduces the protection” and the “Lowest concentration found effective in protecting RPE cells” value ([1]; TBHP, FIG. 3) was 10 µM. For the same compound, the “Protective effect on RPE cells in combination with PKC inhibitor chelerythrine” value ([1]; chelerythrine 2 μM, 24 h, FIG. 6B) was “significantly reduces the protective effect”, the “TBHP concentration up to which complete protection of RPE cells was provided” value ([1]; compound at 25 μM, FIG. 2) was ≤ 400 µM and the “Times more active than sulindac in protecting RPE cells and other cells from oxidative damage” value ([1]; on a molar basis, stated as 'may be') was “at least 10 times”. For the same compound, the “Fold lower effective concentration relative to sulindac (RPE cell protection)” value ([1]; sulindac 200 μM, Compound 10 at 25 μM, Compound 9 at 10 μM) was 20 ×, the “Protective effect on RPE cells in combination with ROS scavenger tiron” value ([1]; tiron 1 mM, 24 h, FIG. 6A) was “attenuates the protective effect” and the “COX-1 inhibition: fold less potent than sulindac sulfide (SS)” value (ovine COX-1) was ≥ 20 ×. For the same compound, the “Inhibition of other cGMP PDE isozymes, including PDE 1, 2, 3 and 11” value [2] was “lower inhibitory effects” and the PDE isozyme selectivity [2] was “most active against PDE5 and 10”.
